Here are results for one sequence from publication PMC3095510 (Biomacromolecules, 2011).

This data set deals with anthrax lethal toxin (PA and LF), RAW264.7 cells.

Ends that are not written are not given here. Where only a bound is given, the exact number is not on record here.

With HTSTYWWLDGAP, the “concentration up to which cytotoxicity was not inhibited” value was greater than 2000 µM.
